From patent publication US7763596B2, “Selective glucocorticoid receptor agonists” (The University of Manchester, priority 2000, dated 2010)

Legend:
endogenous GR = molecular target: T1, endogenous GR (Homo sapiens, UniProt P04150); assay: Transrepression assay using endogenous GR in the A549 lung epithelial cell line (TNF, NRE luciferase); type: cell-based; conditions: compound G at 1, 10, 100 and 500 nM
T1 construct: This cell line contains functional endogenous GR; endogenous in cells; host or cells: A549
T1 sequence (P04150 1-777): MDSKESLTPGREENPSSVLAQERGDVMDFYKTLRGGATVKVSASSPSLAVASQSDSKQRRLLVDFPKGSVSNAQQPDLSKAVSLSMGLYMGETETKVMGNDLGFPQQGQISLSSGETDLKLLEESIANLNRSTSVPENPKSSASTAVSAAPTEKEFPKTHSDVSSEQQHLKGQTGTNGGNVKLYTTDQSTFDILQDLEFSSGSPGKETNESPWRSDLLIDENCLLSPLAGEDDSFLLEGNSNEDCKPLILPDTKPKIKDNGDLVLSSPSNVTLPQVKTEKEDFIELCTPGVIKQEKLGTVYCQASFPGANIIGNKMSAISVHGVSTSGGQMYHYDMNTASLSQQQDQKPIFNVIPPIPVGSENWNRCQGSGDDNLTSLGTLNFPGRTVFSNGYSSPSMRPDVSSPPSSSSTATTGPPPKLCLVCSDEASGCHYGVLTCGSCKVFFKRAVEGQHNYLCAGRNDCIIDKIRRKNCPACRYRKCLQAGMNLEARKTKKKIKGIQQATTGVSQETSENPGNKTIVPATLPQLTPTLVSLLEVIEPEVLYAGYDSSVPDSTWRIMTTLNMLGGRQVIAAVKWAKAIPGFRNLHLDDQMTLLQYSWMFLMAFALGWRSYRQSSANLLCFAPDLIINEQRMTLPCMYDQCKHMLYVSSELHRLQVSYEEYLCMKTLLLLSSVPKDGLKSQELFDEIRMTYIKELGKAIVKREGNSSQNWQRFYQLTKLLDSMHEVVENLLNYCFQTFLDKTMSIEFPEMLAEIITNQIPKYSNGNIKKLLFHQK
Source text: (§1) The A549 cell line (ECACC:86012804) is derived from the human lung epithelial cells from a carcinoma. This cell line contains functional endogenous GR and is stimulated by Tumour Necrosis Factor (TNF) to produce IL-8.
In this assay TNF was used to stimulate NFkB activity in a cell line that expressed endogenous GR. The ability of NFkB to activate an NRE “driving” a luciferase reporter gene could then be repressed by GR in a ligand dependent manner and, therefore, used to measure transrepression.
COS7 cells were transfected with 3 μg NRE-Luc per 10 cm tissue culture dish. The cells were plated out in to 24 well plates after transfection and left for 18 hours to recover before the steroids of FIGS. 1 and 2 were added. Next TNF was added to the samples after 3 hours incubation with the steroids and after another 15 hours the cells were lysed and a luciferase assay was performed.

IL-8 = assay: Repression of endogenous IL-8 in A549s; type: cell-based, human; conditions: A549 cells; compound G at 100 nM, p=0.0076
Source text: as §1
In this assay TNF was used to stimulate NFkB activity in a cell line that expressed endogenous GR. The ability of NFkB to induce IL-8 gene transcription could then be repressed by GR in a ligand dependent manner and, therefore, used to measure transrepression.
COS7 cells were transfected with 3 μg NRE-Luc per 10 cm tissue culture dish. The cells were plated out in to 24 well plates after transfection and left for 18 hours to recover before the steroids of FIGS. 1 and 2A were added. After incubation for 3 hours with the steroids, TNF was added to the samples and after another 15 hours an IL-8 assay (R&D systems) was performed on the cell supernatants according to the manufacturers instructions. Briefly, triplicates of 100 μl of a 1:2 dilution of cell supernatant and 100 μl of a known dilution series of IL-8 were added to the wells of a microtitre plate coated with a monoclonal IL-8 antibody, the samples were incubated with a polyclonal biotinylated IL-8 antibody for 1 hour at room temperature and washed. Streptavidin horse radish peroxidase solution was then added to all wells and incubated for 30 mins before being washed. Tetramethyl benzidine (TMB; a chromagen) was added to all the wells and incubated in the dark for 10 mins, the reaction was stopped by the addition of H2SO4 and the absorbance of each well was read on a spectrophotometer using 450 nm as the primary wavelength. Regression analysis was performed on the standard data and the unknowns were expressed as pg/ml of IL-8 in comparison to the standards.

GFP tagged GR = molecular target: T2, GFP tagged GR (Homo sapiens, UniProt P04150); assay: Nuclear translocation using GFP tagged GR and fluorescent microscopy; type: cell-based; conditions: COS 7 cells, 100 nM, 3 hours
T2 construct: expressed in transfected cells; host or cells: COS 7
T2 sequence (P04150 1-777): T1 sequence (P04150 1-777)
Source text: The un-liganded GR is present in the cytoplasm of cells in association with heat shock proteins (HSPs). The binding of an agonist ligand to the GR causes dissociation from the HSPs and translocation to the nucleus. A type I antagonist ligand can bind to the GR but cannot translocate to the nucleus. A type II antagonist ligand can bind to the GR, translocate to the nucleus and bind to DNA but cannot activate gene transcription. Therefore, the ability of a putative ligand to translocate the GR helps to determine its status as an agonist or antagonist. COS 7 cells were transfected with 5 μg of a green fluorescent protein (GFP) tagged GR expression vector. After transfection, these cells were split into 6 well plates with sterile microscope cover slips placed at the bottom of each well. The cells were allowed to recover for 18 hours and then the medium was removed, the cells were washed three times with sterile phosphate buffered saline (PBS) and new medium was added containing charcoal stripped FCS in place of normal FCS. The cells were incubated for 18 hours and then the steroids of FIGS. 1 and 2A were added to make a final concentration of 100 nM. The cells were incubated for a further 3 hours and then the medium was aspirated and the cells were fixed to the glass coverslips by adding ice cold methanol and incubating at −20° C. for 30 mins. The coverslips with the transfected cells fixed to them were mounted on slides and the cellular localisation of the GFP tagged GR was analysed by fluorescent microscopy using an Axioplan 2 microscope (Zeiss, Oberkochen, Germany) and KS300 v3.0 analysis software (Zeiss).

glucocorticoid receptor = molecular target: T3, glucocorticoid receptor (Homo sapiens, UniProt P04150); assay: Transrepression assay using artificially expressed glucocorticoid receptor and P65 in the COS 7 cell line (NRE luciferase); type: cell-based; parameters: expressed in transfected cells; host or cells: COS 7 (African green monkey kidney, deficient in endogenous GR); conditions: 1, 10 and 100 nM
T3 sequence (P04150 1-777): T1 sequence (P04150 1-777)
Experimental: All transfections were performed using lipofectamine plus (Gibco BRL), according to the manufacturers' instructions, as previously described^1. Briefly, all cells were seeded at 5×10^5 per 10 cm tissue culture plate 18 hours before transfection, the next day the relevant plasmids were mixed with serum free medium and “Plus” reagent (Gibco BRL) and incubated for 15 mins, lipofectamine reagent was added and the mix was incubated for a further 15 mins, this mix was added to the cells on serum free medium in the 10 cm tissue culture plates and left for 3 hours, the cells were then trypsinised and divided into 24 well plates, the cells were left to recover overnight and were treated with steroid for 16 hours before harvest. All experiments were performed from one transfection in triplicate and on separate occasions with similar results.
The firefly luciferase gene catalyses the production of light from the substrate luciferin. When plasmid constructs containing this gene are transfected into cell lines the activity of the gene can be assessed by the intensity of the luminesence. The luciferase assay yields luminescence through an ATP-dependent oxidation of luciferin the amount of light produced can be measured by a luminometer and is a measure of gene activity (Davis, 1996). Light intensity was measured in a Luminometer (LB 9501, Berthold). The light intensity should be proportional to luciferase concentration in the range of 10^−16M (10 μg/L) to 10^−8M (1 mg/L). To measure the luminescence of the treated cells 150 μl of 1× reporter lysis buffer (RLB: 25 mM Tris phosphate pH7.8, 10 mM MgCl2, 15% Glycerol, 1% Triton, 1 mM EDTA) was added to the 24 well plates to lyse the cells and incubated at room temperature for 30 mins whilst being shaken. Then 100 μl of the room temperature cell extract were mixed with 100 μl of room temperature Luciferase Assay Reagent (LAR: 1 mM ATP, 0.3 mM D-Luciferin, 66% RLB). This reaction was mixed in a luminometer (LB 9501, Berthold) and the light produced was measured for a period of 5 seconds.
To perform this assay the GR and p65 were artificially expressed in a cell line lacking GR and deficient in endogenous P65. The ability of P65 to activate an NFkB response element (NRE) “driving” a luciferase reporter gene could then be repressed by GR in a ligand dependent manner and, therefore, used to measure transrepression.
COS7 cells were transfected with 1 μg pcDNA3-GR and 3 μg NRE-Luc and 200 ng p65 per 10 cm tissue culture dish. The cells were plated out in to 24 well plates after transfection and left for 18 hours to recover before the steroids of FIGS. 1 and 2A were added. After another 18 hour incubation the cells were lysed and a luciferase assay was performed.

[1] = system: zymosan induced neutrophil migration; assay: Air pouch model of inflammation, zymosan induced neutrophil migration; type: in vivo, mice
Experimental: Male outbred Swiss albino mice (18-20 g body weight) were purchased from Bantin and Kingman (T.O. strain; Hull, Humberside) and maintained on a standard chow pellet diet with tap water ad libitum and a 12:00 h light/dark cycle. All animals were housed for 3 days prior to experimentation to allow body weight to reach 20-22 g. On the day of experiment mice ranged from 24-26 g.
Air-pouches were formed on the back of mice by air injection (2.5 ml s.c.) on day 0 and day 3 (Perretti and Flower, 1993).
Zymosan A was allowed to defrost at room temperature for 30 min prior to being added to sterile PBS at a concentration of 2 mg/ml forming a homogenous suspension.
(§2) At time 0, mice received either 0.5 ml of zymosan (1 mg) (group A, B, C) injected locally into the air-pouch. Group D and E were left untreated at this time-point. At 4 h post-zymosan the animals were placed in CO2. Air-pouches were then washed with 2 ml of PBS containing 3 mM EDTA, and livers were recovered and snap frozen for later analysis.
The number of migrated leukocytes (≧90% polymorphonuclear leukocytes, PMN) was determined in the lavage fluid from each air-pouch, by taking an aliquot (100 μl) of the lavage fluid and diluting 1:10 in Turk's solution (0.01% crystal violet in 3% acetic acid). The samples were then vortexed and 10 μl of the stained cell solution were placed in a Neubauer haematocymometer and neutrophils numbers counted using a light microscope (Olympus B061).
Neutrophil numbers were compared between groups using ANOVA plus the Bonferroni test. TAT levels were compared using a t-test.

[2] = system: tyrosine amino transferase (TAT); assay: Quantitation of tyrosine amino transferase (TAT) in the livers of air pouch mice; type: in vivo; conditions: 3 μg i.p., FIG. 22
Experimental: as §2
Quantitation of Tyrosine Amino Transferase (TAT) Protein in the Livers: In this method a colourimetric approach is used to quantitate TAT activity. The TAT enzyme catalyses the following reaction: L-tyrosine+2-oxoglutarate⇄4-hydroxyphenylpyruvate (pHPP)+L-glutamate
This reaction also requires pyridoxal phosphate (PLP) as a co-factor. Strong alkali conditions can then be used to convert pHPP to p-hydroxybenzaldehyde (pHBA) and oxalate. The amount of pHBA can then be assessed by measuring its absorbance at 331 nm (extinction coefficient 19,900 M^−1cm^−1) this figure is then assumed to be directly proportional to TAT activity. Livers were homogenized and the cells were stored on ice. […]
For each reaction a control reaction was set up without the ketoglutarate. […] The samples were incubated at room temperature for a further 30 mins and then the absorbance of each sample was assessed at 331 nm on a spectrophotometer (Ultrospec III, Pharmacia).

SMILES | repression of TNF activation of A549 cells (NRE reporter gene) (endogenous GR) | repression of IL-8 production after TNF activation (IL-8) | nuclear translocation of the GFP tagged glucocorticoid receptor (GFP tagged GR) | repression of P65 stimulation of an NFkB response element compared with dexamethasone (glucocorticoid receptor) | Neutrophils (10^6 per mouse) ([1]; 3 μg i.p. at -1 h, Zymosan 1 mg into air-pouch, 4 h time-point, mean ± S.E. of 8 mice) | reduction of neutrophil accumulation ([1]; 3 μg i.p., zymosan air pouch, 4 h) | liver TAT level compared with vehicle control groups [2]
CCCNC(=O)OCC(=O)C1(O)C(C)CC2C3CCC4=CC(=O)C=CC4(C)C3(F)C(O)CC21C (stereo not shown) [Compound H] | exhibited transrepression | exhibited transrepression | caused nuclear localisation | less potent than dexamethasone but produced the same maximal response at 100 nM |  |  | 
C[C@@H]1C[C@H]2[C@@H]3CCC4=CC(=O)C=C[C@]4(C)[C@@]3(F)[C@@H](O)C[C@]2(C)[C@@]1(O)C(=O)CO [Dexamethasone, reference compound] |  |  |  |  | 6.23 ± 0.44 * 10^6 per mouse | ~30% | further elevation of TAT
